What was measured:
Lipophilicity (LogD) = type: physicochemical; details: pH 7.4; obtained amyloid probe
Protocol: (§1) The labeling of the compounds of the invention was carried out under standard conditions (Na^123/125I, oxidizer, acidic medium) at ambient temperature. Radiochemical yields averaged 35-90%. The labeled compounds were readily purified by reverse-phase HPLC, and their radiochemical purity exceeded 95%.

[1] = Protein binding (free ligand fraction in plasma); type: in vitro ADME; details: obtained amyloid probe
Protocol: as §1

## CN(C)c1ccc(-n2nc3ccc(I)cc3n2)cc1 [MNI-187]
Lipophilicity (LogD)
  logD: 2.7
[1]
  free ligand fraction in plasma: 4%

Reference: patent publication US7700616B2, “Compounds and amyloid probes thereof for therapeutic and imaging uses” (Molecular Neuroimaging, LLC., priority 2006, dated 2010)
